Reference: patent US5296491A, “Pyrazolo[4,3-c]pyridines and their use as serotonin reuptake inhibitors” (Hoechst-Roussel Pharmaceuticals Inc., priority 1993, dated 1994)
Structures can show the parent of a compound that is named as a salt.

test system: serotonin (5-hydroxytryptamine (5HT)) uptake; assay: [^3 H]-Serotonin Uptake in Rat Whole Brain and Hypothalamic Synaptosomes; format: biochemical, rat (male Wistar); conditions: [^3 H]-5HT 50 nM, 5 minutes, 37° C., log probit analysis
Procedure: [^3 H]-Serotonin Uptake in Rat Whole Brain and Hypothalamic Synaptosomes
This activity is determined in an assay which measures [^3 H]-serotoninuptake in rat whole brain and hypothalamic synaptosomes. The assay described below is used as a biochemical screen for potential antidepressants which block serotonin (5-hydroxytryptamine (5HT)) uptake.
Male CR Wistar rats (100-125 g)
1. Krebs-Henseleit Bicarbonate Buffer, pH 7.4 (KHBB):
Prepare a 1 liter batch containing the following salts.
Prior to use add to 200 ml, per assay:
The batch is aerated for 60 minutes with 95% 02 /5% CO2, the pH is checked to insure it is at 7.4±0.1, then add bovine serum albumin (Sigma cat# A-7906) 1 mg/ml.
Make a 4 liter batch, containing the following salts:
3. Sucrose solution: 0.32M sucrose containing 5 mM HEPES and 0.1 mM EDTA; pH to 7.3 using Tris base.
4. A 0.1 mM stock solution of serotonin creatinine SO4 is made up in 0.01N HCl. This is used to dilute the specific activity of the radiolabeled 5HT.
5. 5-[1,2-^3 H(N)]-Hydroxytryptamine creatinine sulfate (serotonin), specific activity 20-30 Ci/mmol, is used.
The final desired concentration of [^3 H]-5HT in the assay is 50 nM. The dilution factor is 0.8. The KHBB is made up to contain 62.5 nM of [^3 H]-5HT.
6. For most assays, a 0.5 mM stock solution of the test compound is made up initially in either 10 μl of glacial acetic acid, 100 μl DMSO or 10 μl of the recrystallization solvent, to which is added approximately 10 ml of distilled water. Compounds are initially screened in duplicate at 3 concentrations (10^-8, 10^-7 and 10^-6 M) made up in water.
The Percoll method for preparing synaptosomes has been modified from Nagy, A., Delgado-Escueta, A. V. J. Neurochem. 43, 1114 (1984) and Dunkley, P. R., Jarvie, R. E., Heath, J. W., Kidd, G. J., Rostas, J. A. P. Brain Research 372, 115 (1986). Male Wistar rats are decapitated and the brain rapidly removed. Whole brain (minus cerebellum) is weighed and homogenized in 15 volumes of ice cold Sucrose solution using a Potter-Elvejhem homogenizer. The following procedures are performed on ice. Homogenization should be done with 4-5 up and down strokes at medium speeds (setting 4.5 to 5) to minimize synaptosome lysis. The homogenate is centrifuged at 1000 g (3000 rpm, Sorvall SS-34 rotor) for 10 minutes at 0°-4° C. The supernatant is removed and approximately 10 ml per tube is carefully layered onto a discontinuous Percoll (Sigma cat# P-1644) gradient: 21% Percoll in Sucrose solution at the bottom (15 ml per tube) and 10% Percoll in the middle ( 10 ml; colored with a few drops of phenol red for visibility).
The Percoll gradient tubes are carefully placed into a Beckman SW-28 swinging bucket rotor and spun in a Beckman XL90 ultracentrifuge using the following program: speed, 11,000 rpm (15,000 g) for 30 minutes at 4° C.; slow acceleration and deceleration (acceleration setting 9; deceleration setting 3). Tubes are carefully removed, and the top layer and the top part of the middle (red) layer are discarded using a pasteur pipette. The synaptosomes are located in the white fluffy band at the interface between the 10% and 21% Percoll layers. This is carefully removed, placed in a centriguge tube, diluted with KHBB and spun at 21,000 g (13,000 rpm, Sorvall SS-34 rotor). The pellet (synaptosomes) is resuspended in KHBB (10 vol per gram original brain wet weight; 1 brain minus cerebellum weighs approximately 1.2 g; 2.5 brains are needed per typical assay).
200 μl of the tissue suspension are added to each of 24 tubes (at a time) containing the 20 μl of vehicle or drug on ice. Three minutes later, 800 μl of KHBB containing [^3 H]-5HT are added, and the tubes are vortexed. The rack containing the 24 tubes is moved from the ice bath to a water bath set at 37° C. The tubes are incubated for 5 minutes under 95% O2 /5% CO2.

Row | Structure (SMILES) | IC50 [µM]
1 | Cc1ccccc1-c1nn(CCN)c2ccncc12 [1-(2-aminoethyl)-3-(2-methylphenyl)-1H-pyrazolo[4,3-c]pyridine] | 0.87
2 | NCCCCn1nc(-c2ccc(Cl)cc2Cl)c2cnccc21 [1-(4-aminobutyl)-3-(2,4-dichlorophenyl)-1H-pyrazolo[4,3-c]pyridine dimaleate] | 0.095
3 | NCCn1nc(-c2ccccc2Br)c2cnccc21 [Example 2A, 1-(2-aminoethyl)-3-(2-bromophenyl)-1H-pyrazolo[4,3-c]pyridine dihydrochloride] | 1.53
4 | NCCn1nc(-c2cccc(Cl)c2Cl)c2cnccc21 [Example 2CC, 1-(2-aminoethyl)-3-(2,3-dichlorophenyl)-1H-pyrazolo[4,3-c]pyridine fumarate] | 0.21
5 | NCCCn1nc(-c2ccc(Cl)cc2)c2cnccc21 [Example 2D, 1-[3-aminopropyl]-3-(4-chlorophenyl)-1H-pyrazolo[4,3-c]pyridine dimaleate] | 0.77
6 | NCCCn1nc(-c2cccc(Cl)c2Cl)c2cnccc21 [Example 2DD, 1-(3-aminopropyl)-3-(2,3-dichlorophenyl)-1H-pyrazolo[4,3-c]pyridine fumarate] | 0.41
7 | NCCn1nc(-c2ccc(Cl)c(Cl)c2Cl)c2cnccc21 [Example 2EE, 1-(2-aminoethyl)-3-(2,3,4-trichlorophenyl)-1H-pyrazolo[4,3-c]pyridine fumarate] | 0.049
8 | NCCCn1nc(-c2ccc(Cl)c(Cl)c2Cl)c2cnccc21 [Example 2FF, 1-(3-aminopropyl)-3-(2,3,4-trichlorophenyl)-1H-pyrazolo[4,3-c]pyridine fumarate] | 0.023
9 | NCCn1nc(-c2ccc(Br)cc2)c2cnccc21 [Example 2H, 1-(2-aminoethyl)-3-(4-bromophenyl)-1H-pyrazolo[4,3-c]pyridine] | 0.94
10 | NCCCn1nc(-c2ccc(Cl)c(Cl)c2)c2cnccc21 [Example 2K, 1-(3-aminopropyl)-3-3,4-dichlorophenyl)-1H-pyrazolo[4,3-c]pyridine maleate] | 0.24
11 | NCCn1nc(-c2ccc(Cl)c(Cl)c2)c2cnccc21 [Example 2L, 1-(2-aminoethyl)-3-(3,4-dichlorophenyl)-1H-pyrazolo[4,3-c]pyridine maleate] | 0.21
12 | NCCn1nc(-c2ccc(C(F)(F)F)cc2)c2cnccc21 [Example 2Q, 1-(2-aminoethyl)-3-(4-trifluoromethylphenyl)-1H-pyrazolo[4,3-c]pyridine maleate] | 1.24
13 | NCCn1nc(-c2ccc(Cl)cc2Cl)c2cnccc21 [Example 2S, 1-(2-amimoethyl)-3-(2,4-dichlorophenyl)-1H-pyrazolo[4,3-c]pyridine fumarate] | 0.058
